The text below walks through data of PubChem BioAssay (NCI).

Each structure is given as a SMILES string. Values joined by “and” are separate entries in the source; they are usually repeats but may differ in a detail not shown here. Identical values can stand only once.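 Exposure lasted 48 hours, with cells grown in 96-well plates and compounds tested at five concentrations. Abbreviation: GI50, concentration required for 50% inhibition of growth. TGI is the concentration that stops growth completely.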

Common to all, as to test: NCI-60 cell line screen, 48 h
Assay [1] has as its system SK-MEL-28 melanoma.
In assay [2] the test system is UACC-257 melanoma.
Assay [3] concerns SR leukemia.
Assay [4] concerns SF-295 CNS.
Assay [5] relates to ACHN renal.
The subject of assay [6] is A498 renal.
In assay [7] the test system is UACC-62 melanoma.
The subject of assay [8] is COLO 205 colon.
Assay [9] deals with MDA-MB-435.
Assay [10] deals with A549 NSCLC.

Regarding `COC(=O)c1sc(-n2cnc3cc(OC)c(OC)cc32)cc1OCc1ccccc1C(F)(F)F`, the GI50 in assay [1] is more than 25 µM; in assay [2], more than 25 µM; in [3], more than 25 µM; in [4] it was more than 23.6 µM; in assay [5] it was more than 25 µM; in assay [6], 0.513 µM. Moreover, the GI50 in [7], in assay [8], in [9] and in assay [10] was more than 25 µM throughout. Also, the TGI in [1], in [2], in [3], in assay [4], in assay [5] and in assay [6] was more than 25 µM in each case. The TGI in [7], in assay [8], in assay [9] and in assay [10] was more than 25 µM in each case.
Regarding `CCOC(=O)Nc1cc2c(c(N)n1)N=C(c1ccc(Cl)cc1Cl)CN2`, the TGI in [1] is 29.5 µM; in [2] it was 90.6 µM; in assay [3], more than 100 µM; in [4] it was 0.0108 µM; in assay [5] it was 20.8 µM; in assay [6], 20.6 µM. The TGI in assay [7] is 11.6 µM; in [8], 4.85 µM; in assay [9], less than 0.0239 µM; in assay [10] it was 19.3 µM.
Consider `O=C1c2ccc3c4c(ccc(c24)C(=O)N1CCCCO)C(=O)N(CCCCO)C3=O`, for which the GI50 in assay [1] was 2.6 µM; in [2] it was 1.3 µM; in [3] it was 0.745 µM; in assay [4], 1.14 µM; in assay [5] it was 0.92 µM; in assay [6], 1.12 µM. Also, the GI50 in [7] was 0.726 µM; in assay [8] it was 0.888 µM; in [9], 1.46 µM; in assay [10] it was 1.93 µM. The TGI came out at 10.4 µM in assay [1]; 2.71 µM in assay [2]; 21.5 µM in assay [3]; 4.84 µM in assay [4]; 5.18 µM in [5]; 2.87 µM in assay [6]. Moreover, the TGI in assay [7] was found to be 2.28 µM; in assay [8] it was 2.5 µM; in assay [9] it was 2.86 µM; in assay [10], 6.65 µM.
Turning to `COc1oc(C2C/C(=C/C(C)=C/C(C)=C/C(C)=C/c3ccc([N+](=O)[O-])cc3)CO2)c(C)c(=O)c1C` (centres undefined), the TGI in assay [1] is more than 60.5 µM; in [2], 66 µM; in assay [3] it was 3 µM; in assay [4], 34.7 µM; in assay [5] it was 6.58 µM; in assay [6], 47.4 µM. The TGI is more than 54.8 µM in assay [7], 24.6 µM in assay [8], 42.4 µM in assay [9] and 68.3 µM in [10].
Regarding `C=C1C(C)C2C(Cc3ccccc3)NC(=O)C23C(OC(C)=O)C=CC(C)(O)C(=O)C(C)C/C=C/C3C1O` (centres undefined), the GI50 in assay [1] was 22.2 µM; in [2] it was 26.3 µM; in assay [4], 0.418 µM; in assay [5], 1.28 µM; in assay [6] it was 0.202 µM and 0.05 µM; in assay [7] it was 29.4 µM. The GI50 in [8] is 0.0825 µM; in [9] it was 2.32 µM; in [10], 0.241 µM. Besides, the TGI in assay [1] is 57.7 µM and 153 µM; in assay [2], 45.4 µM and 335 µM; in assay [3], more than 289 µM; in [4], 30.5 µM and 62.3 µM; in assay [5] it was more than 196 µM; in [6], 1.47 µM and 13.9 µM. Further, the TGI was more than 285 µM in assay [7], more than 500 µM in assay [8], more than 414 µM in assay [9] and more than 500 µM in [10].
As for `COc1cccc(/C=C\C(=O)c2ccccc2)c1`, the GI50 in [1] is 4.31 µM; in [2], 17.7 µM; in assay [3] it was 8.89 µM; in [4], 8.45 µM; in assay [5], 7.34 µM; in assay [6], 11.4 µM. The GI50 in assay [7] is 13.3 µM; in assay [8], 7.82 µM; in assay [9], 11.9 µM; in [10], 15 µM. For the same molecule, the TGI is 15 µM in assay [1]; 33.3 µM in assay [2]; more than 100 µM in assay [3]; 27.5 µM in assay [4]; 23.4 µM in assay [5]; 26.2 µM in [6]. In addition, the TGI in assay [7] turned out to be 29 µM; in assay [8], 40.8 µM; in [9], 27.8 µM; in [10], 40.5 µM.
Take `Cc1ccc(C)c(N2CCN(c3ccncc3N)CC2)c1`: the GI50 in assay [1] was 19.6 µM; in [2] it was 14.4 µM; in assay [3] it was 15.6 µM; in assay [4] it was 11.1 µM; in [5] it was 11.9 µM; in assay [6] it was 3.65 µM. Also, the GI50 in [7] was 13.9 µM; in [8], 13.8 µM; in [9], 14.9 µM; in [10], 17.5 µM. The TGI was 40.8 µM in assay [1]; 34.6 µM in assay [2]; 52.6 µM in assay [3]; 38.5 µM in [4]; more than 100 µM in assay [5]; 25.9 µM in [6]. Also, the TGI in [7] was 30.8 µM; in assay [8], 27.1 µM; in assay [9], 36.3 µM; in assay [10], more than 100 µM.
For the molecule `Cc1[nH]c2c(C)c3c([nH]c4ccc(Cl)cc43)c(C)c2c(=O)c1C`, the TGI in assay [1] was more than 100 µM; in assay [2], more than 100 µM; in assay [3], 8.19 µM; in assay [4], 36.2 µM; in assay [5], 11.6 µM; in assay [6], 51.9 µM. The TGI was more than 88.3 µM in [7], 18.8 µM in [8], more than 53.5 µM in assay [9] and 10 µM in assay [10].
Regarding `COc1cc([C@H]2OC[C@@H]3C(c4cc(OC)c5c(c4)OCO5)OC[C@H]23)cc(OC)c1OC` (some centres undefined), the TGI in assay [1], in assay [2], in assay [3], in assay [4], in assay [5] and in [6] was more than 100 µM each time. The TGI in assay [7], in [8], in assay [9] and in assay [10] was more than 100 µM throughout.
